Values quoted from earlier work, collected in US10806768B2, “Composition for promoting metallothionein production” (priority 2016, dated 2020).

For `CC(=O)N[C@@H](CS)C(=O)O` [NAC, N-Acetyl-Cysteine], the “oxidative glutathione disulfide (GSSG) level, NAC group” value (only at a trend level of significance, p=0.09) is listed as “increased”, the “CGI-I, NAC versus placebo groups” value (p>0.69) is listed as “no statistically significant difference” and the “glutathione (GSH) level in blood, NAC group” value (versus placebo, p<0.05) is listed as “significantly higher”. The “DNA strand break and oxidative damage, NAC versus placebo groups” value (week 12) was “no significant difference”, the “GSH/GSSG ratio, NAC versus placebo groups” value (week 12) was “no significant difference” and the “blood homocysteine levels, NAC versus placebo groups” value (week 12) was “no significant difference”.
